Data set [1] is described as follows: H+/Na+ transport assay of purified peptides. Particulars: for Supplementary Figure 5 dose-response value (H+/Na+ transport): three replicate lines.
Method: First, we evaluated the ion channel function of 1 using liposomes. To mimic a negatively charged Gram-positive bacterial membrane, the liposomes were prepared as large unilamellar vesicles (LUVs) comprising a 19:1 mixture of egg yolk phosphatidylcholine (EYPC) and egg yolk phosphatidylglycerol (EYPG)[57]. Pyranine, a pH-dependent fluorescent dye[58], was encapsulated in the LUVs and a pH gradient was applied across the membrane. H^+/Na^+ transport induced by a peptide was monitored by changes in the fluorescence intensity of pyranine.
Data set [2] has as its system Streptococcus pyogenes SSI-9. As to the kind of experiment: Antibacterial activity assay of bead-derived peptides (three concentrations). The class given is cell-based. Particulars: S. pyogenes. Also noted: key: +++: inhibition by the 640-fold diluted peptide solution; ++: inhibition by the 160-fold diluted solution; +: inhibition by the 40-fold diluted solution; -: no inhibition. In outline:
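Library peptide stock applied undiluted, 4-fold and 16-fold diluted in DMSO to S. pyogenes SSI-9 (2 × 10^5 CFU) in cation-adjusted Mueller Hinton broth with 5% laked horse blood. After 18 h at 37 °C, growth judged by visible cell precipitation.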

Another data set relates to rabbit red blood cells. Particulars: red cells of rabbit, 2 h. How it is done:
Second, we examined the cytotoxicity toward mammalian cancer cells and hemolytic activity of 1. […] Hemolytic activity was evaluated by monitoring hemoglobin leakage from rabbit red blood cells as a consequence of membrane damage. The concentration of 1 required to cause 10% hemoglobin leakage (HC10) was 160 nM. Thus, the P388 cytotoxicity of 1 was 28-fold more sensitive than its hemolytic activity.
Hemolysis assay of purified peptides. […]
with DMSO to various concentrations as 3-fold serial dilution. A 50% suspension of rabbit blood in Alsever's solution was obtained from Nippon Bio -Supp. Center . The blood suspension (250 µL) w as diluted with phosphate buffered saline (no calcium, no magnesium, 1.00 mL). The resultant suspension was centrifuged at 1000 × g for 3 min at 8 °C. The supernatant was discarded, and the collected cells were resuspended in phosphate buffered saline (no calcium, no magnesium, 1.00 mL). The same procedure was repeated (× 3). The resultant suspension (100 µL) was diluted with phosphate buffered saline (no calcium, no magnesium, 4.90 mL) to give 0.2% red blood cells suspension. The 0.2% red blood cells suspension (95.0 µL) and each dilution series of the purified peptide in DMSO (5 .0 µL) were mixed in 2 mL microtube.
supernatant was transferred to a 96-well plate (TR5003, TrueLine). The absorbance of each well at 415 nm was measured using a Thermo Scientific Multiskan GO (Thermo Fisher Scientific). The mixture of Triton X-100/H2O (5/95, 2.0 µL), DMSO (5.0 µL), and the 0.2% red blood cells suspension (95.0 µL) was used to determine 100% hemolysis. The mixture of DMSO (5.0 µL) and the 0.2% red blood cells suspension (95.0 µL) was used to determine 0% hemolysis. The hemolytic activities of tested peptides ( I) were normalized against 100% hemolysis by Triton X -100 (Imax) and 0% hemolysis by DMSO (I0) according to Supplementary Equation 3, where Ix is the UV absorbance.
I = 100 × (Ix – I0) / (Imax – I0) (3)
The hemolytic activities of the purified peptides were evaluated as the concentrations causing 10% hemolysis (HC10, nM) by means of three replicates. Sigmoidal curve fittings were performed on GraphPad Prism (GraphPad software, Supplementary Figure 7).

The test system of data set [3] is MSSA1 (methicillin-susceptible Staphylococcus aureus). It is filed as cell-based. How it is done:
Evaluation of antibacterial spectra of purified peptides. The MIC assay was performed according to the Clinical and Laboratory Standards Institute protocols. The antibacterial activities of the purified peptides A1, B01–B04, B11–B13, B21, and B22 were measured using the broth microdilution method. 6 Serial dilutions of the peptides were prepared in cation adjusted Mueller Hinton Broth. Each dilution (100 µL) was dispensed to each well of the round-bottom plate to obtain final concentrations ranging from 64 µg/mL to 0.00024 µg/mL. Bacteria were grown at 37 °C overnight on Tryptic Soy Broth or Mueller Hinton Broth agar plates.
The bacterial colonies were suspended in 0.9% saline to obtain OD 625 of 0.08–0.13 using a spectrophotometer UV-1280 (Shimadzu). The resultant suspension was diluted with cation adjusted Mueller Hinton Broth (1/20). The resultant mixture (10 .0 µL) was inoculated to each well of the plates (approximately 5 × 10^4 CFU/well), mixed, and incubated at 37 °C for 18–24 h. The MIC value was determined as the minimum concentration that inhibited growth of bacteria. For Streptococcus species, cation adjusted Mueller Hinton Broth supplemented with 5% laked horse blood was used. […]

For data set [4], the system named is P388 mouse leukemia cell line.
Setting [5] is: read-out: EC50, H+/Na+ transport assay, 1st experiment.
Where [6] appears, read: read-out: EC50, H+/Na+ transport assay, 2nd experiment.
Setting [7] is: read-out: EC50, H+/Na+ transport assay, 3rd experiment.
Setting [8] is: read-out: H+/Na+ transport activity EC50, EYPC/EYPG (19:1) LUVs.
[9] abbreviates: read-out: H+/Na+ transport activity/EC50, mean ± SD of three independent experiments.

Data on 3 compounds can be found in article PMC7531004, “Discovery of gramicidin A analogues with altered activities by multidimensional screening of a one-bead-one-compound library” (Nature Communications, 2020).

Where “and” joins values, the source holds several entries; their conditions need not be identical. Equal entries are not always repeated. Where two headings read alike, the source gives them in different places. Where a SMILES comes first, the peptide text is derived from it. [ ]: non-standard residue; d: D form. The star is where a group is joined. NHCH2CH2OH = OCCN*; For = O=C* Some results are limits rather than exact numbers.

Consider `CC(C)C[C@@H](NC(=O)[C@H](Cc1c[nH]c2ccccc12)NC(=O)[C@@H](CC(C)C)NC(=O)[C@H](Cc1c[nH]c2ccccc12)NC(=O)[C@@H](CC(C)C)NC(=O)[C@H](Cc1c[nH]c2ccccc12)NC(=O)[C@H](NC(=O)[C@@H](NC(=O)[C@H](NC(=O)[C@H](C)NC(=O)[C@H](NC(=O)[C@H](C)NC(=O)CNC(=O)[C@@H](NC=O)C(C)C)C(C)C)C(C)C)C(C)C)C(C)C)C(=O)N[C@@H](Cc1c[nH]c2ccccc12)C(=O)NCCO` [A1] (For-VGA[dV]A[dV]V[dV]W[dL]W[dL]W[dL]W-NHCH2CH2OH), for which the “Supplementary Figure 5 dose-response value (H+/Na+ transport)” value was 1.8002 and 1.763 and 1.206 in data set [1] (concentration 0.000512 nM); 3.307 and 4.634 and 1.407 in data set [1] (concentration 0.00256 nM); 5.867 and 6.44 and 5.481 in data set [1] (concentration 0.0128 nM); 6.841 and 9.002 and 6.572 in data set [1] (concentration 0.064 nM); 16.8499 and 16.683 and 16.1323 in data set [1] (concentration 0.32 nM); 35.8143 and 34.663 and 30.2235 in data set [1] (concentration 1.6 nM). Besides, the “Supplementary Figure 5 dose-response value (H+/Na+ transport)” value in data set [1] (concentration 8 nM) was 59.1193 and 56.2604 and 57.9939; in data set [1] (concentration 40 nM), 69.1281 and 68.6879 and 67.3822; in data set [1] (concentration 200 nM), 71.9954 and 72.6939 and 69.0451; in data set [1] (concentration 1000 nM), 75.1932 and 74.1998 and 72.8534; in data set [1] (concentration 5000 nM), 74.4116 and 69.1356 and 72.7894. The EC50 in data set [1] (setting [5]) stood at 1.9 nM; in data set [1] (setting [6]) it was 3.5 nM; in data set [1] (setting [7]), 1.99 nM; in data set [1] (setting [8]), 2.5 nM; in data set [1] (setting [9]), 2.46 ± 0.9 nM. In data set [2], the “antibacterial activity in the library screening” value is “+++”. The “Hemolytic activity HC10 (concentration causing 10% hemolysis)” value in the data set on rabbit red blood cells came out at 240 nM. For the same compound, the “antibacterial activity/MIC” value in data set [3] was determined as 8 µg/mL.

In the case of `CC(C)C[C@@H](NC(=O)[C@H](C)NC(=O)CNC(=O)[C@@H](NC=O)C(C)C)C(=O)N[C@@H](C)C(=O)N[C@@H](C(=O)N[C@H](C(=O)N[C@@H](C(=O)N[C@@H](Cc1c[nH]c2ccccc12)C(=O)N[C@H](CC(C)C)C(=O)N[C@@H](Cc1c[nH]c2ccccc12)C(=O)N[C@H](CC(C)C)C(=O)N[C@@H](Cc1c[nH]c2ccccc12)C(=O)N[C@@H](C(=O)N[C@@H](Cc1c[nH]c2ccccc12)C(=O)NCCO)C(C)C)[C@H](C)O)C(C)C)C(C)C` [B12] (For-VGA[dL]A[dV]V[dT]W[dL]W[dL]W[dV]W-NHCH2CH2OH), the “Supplementary Figure 5 dose-response value (H+/Na+ transport)” value was 2.818 and 0.0271 and -0.589 in data set [1] (concentration 0.000512 nM); 3.476 and 5.315 and 5.077 in data set [1] (concentration 0.00256 nM); 4.761 and 4.753 and 4.729 in data set [1] (concentration 0.0128 nM); 8.321 and 5.0339 and 7.369 in data set [1] (concentration 0.064 nM); 16.8579 and 20.7391 and 16.934 in data set [1] (concentration 0.32 nM); 35.2545 and 35.7349 and 38.3822 in data set [1] (concentration 1.6 nM). In addition, the “Supplementary Figure 5 dose-response value (H+/Na+ transport)” value in data set [1] (concentration 8 nM) is 63.7974 and 60.2094 and 62.8038; in data set [1] (concentration 40 nM), 71.4784 and 67.4712 and 69.6703; in data set [1] (concentration 200 nM) it was 72.1513 and 73.1412 and 71.1696; in data set [1] (concentration 1000 nM) it was 74.8337 and 73.0658 and 70.6415; in data set [1] (concentration 5000 nM) it was 78.5724 and 78.4083 and 76.7501. Moreover, the EC50 in data set [1] (setting [5]) came out at 1.66 nM; in data set [1] (setting [6]), 0.838 nM; in data set [1] (setting [7]) it was 2.98 nM; in data set [1] (setting [8]), 1.8 nM; in data set [1] (setting [9]), 1.83 ± 1.08 nM. Besides, the “Hemolytic activity HC10 (concentration causing 10% hemolysis)” value in the data set with rabbit red blood cells was greater than 3000 nM. For the same compound, the “weaker cytotoxicity than 1” value in data set [4] is 70 fold. For the same compound, the “antibacterial activity/MIC” value in data set [3] stood at 4 µg/mL.

As for `CC(C)C[C@@H](NC(=O)[C@H](C)NC(=O)[C@H](NC(=O)[C@H](C)NC(=O)CNC(=O)[C@@H](NC=O)C(C)C)C(C)C)C(=O)N[C@H](C(=O)N[C@@H](C(=O)N[C@@H](Cc1c[nH]c2ccccc12)C(=O)N[C@@H](C(=O)N[C@@H](Cc1c[nH]c2ccccc12)C(=O)N[C@H](CC(C)C)C(=O)N[C@@H](Cc1c[nH]c2ccccc12)C(=O)N[C@H](CC(C)C)C(=O)N[C@@H](Cc1c[nH]c2ccccc12)C(=O)NCCO)C(C)C)C(C)C)C(C)C` [B02] (For-VGA[dV]A[dL]V[dV]W[dV]W[dL]W[dL]W-NHCH2CH2OH), the “Supplementary Figure 5 dose-response value (H+/Na+ transport)” value in data set [1] (concentration 0.000512 nM) is 0.2643 and 0.7827 and 0.1241; in data set [1] (concentration 0.00256 nM), 2.146 and 0.0547 and 1.671; in data set [1] (concentration 0.0128 nM), 4.163 and 0.6112 and 1.64; in data set [1] (concentration 0.064 nM), 7.246 and 2.883 and 3.652; in data set [1] (concentration 0.32 nM) it was 11.0985 and 10.392 and 10.3413; in data set [1] (concentration 1.6 nM), 29.1914 and 27.2825 and 29.9486. Besides, the “Supplementary Figure 5 dose-response value (H+/Na+ transport)” value is 56.3118 and 49.6431 and 51.0872 in data set [1] (concentration 8 nM); 73.3306 and 69.0608 and 69.1921 in data set [1] (concentration 40 nM); 73.6961 and 72.6071 and 72.9778 in data set [1] (concentration 200 nM); 75.3536 and 79.2012 and 75.9728 in data set [1] (concentration 1000 nM); 75.4417 and 72.7674 and 77.9824 in data set [1] (concentration 5000 nM). The EC50 in data set [1] (setting [5]) was 3.08 nM; in data set [1] (setting [6]), 1.68 nM; in data set [1] (setting [7]), 5.38 nM; in data set [1] (setting [8]), 3.4 nM; in data set [1] (setting [9]), 3.38 ± 1.87 nM. In addition, in the data set on rabbit red blood cells, the “Hemolytic activity HC10 (concentration causing 10% hemolysis)” value came out at 1400 nM. Besides, the “antibacterial activity/MIC” value in data set [3] was determined as 32 µg/mL.
